How the values were obtained:
Type in all cases: in vivo
[1] = system: Italian ryegrass (Lolium mutiflorum); test: Test C preemergence, visual plant response rating; conditions: Test C, 0 is no effect, 100 is complete control
Method in brief: (§1)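 Visual injury on a 0 (no effect) to 100 (complete control) scale versus untreated controls, scored approximately 10 d after treatment under greenhouse conditions. Treatments used surfactant-containing non-phytotoxic solvent formulations, sprayed onto loam–sand soil preemergence or onto one- to two-leaf plants 2–10 cm tall postemergence.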

[2] = system: barnyardgrass (Echinochloa crus-galli); test: Test C preemergence, visual plant response rating; conditions: Test C, 0 is no effect, 100 is complete control
Method in brief: as §1

[3] = system: foxtail, giant (giant foxtail, Setaria faberi); test: Test C preemergence, visual plant response rating; conditions: Test C, 0 is no effect, 100 is complete control
Method in brief: as §1

[4] = system: kochia (Bassia scoparia); test: Test C preemergence, visual plant response rating; conditions: Test C, 0 is no effect, 100 is complete control
Method in brief: as §1

[5] = system: pigweed (Amaranthus retroflexus); test: Test C preemergence, visual plant response rating; conditions: Test C, 0 is no effect, 100 is complete control
Method in brief: as §1

[6] = system: ragweed (common ragweed, Ambrosia artemisiifolia); test: Test C preemergence, visual plant response rating; conditions: Test C, 0 is no effect, 100 is complete control
Method in brief: as §1

[7] = system: Italian ryegrass (Lolium mutiflorum); test: Test C postemergence, visual plant response rating
Method in brief: as §1

[8] = system: barnyardgrass (Echinochloa crus-galli); test: Test C postemergence, visual plant response rating
Method in brief: as §1

[9] = system: blackgrass (Alopecurus myosuroides); test: Test C postemergence, visual plant response rating
Method in brief: as §1

[10] = system: corn (Zea mays); test: Test C postemergence, visual plant response rating
Method in brief: as §1

[11] = system: foxtail, giant (giant foxtail, Setaria faberi); test: Test C postemergence, visual plant response rating
Method in brief: as §1

[12] = system: galium (catchweed bedstraw, Galium aparine); test: Test C postemergence, visual plant response rating
Method in brief: as §1

[13] = system: kochia (Bassia scoparia); test: Test C postemergence, visual plant response rating
Method in brief: as §1

[14] = system: pigweed (Amaranthus retroflexus); test: Test C postemergence, visual plant response rating
Method in brief: as §1

[15] = system: ragweed (common ragweed, Ambrosia artemisiifolia); test: Test C postemergence, visual plant response rating
Method in brief: as §1

[16] = system: wheat (Triticum aestivum); test: Test C postemergence, visual plant response rating
Method in brief: as §1

[17] = system: barnyardgrass (Echinochloa crus-galli); test: Test D flooded paddy test, visual plant response rating; conditions: 250 g ai/ha, scale 0 to 100 (0 no effect, 100 complete control), 13 to 15 d
Method in brief: (§2)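 Visual injury scores, 0 (no effect) to 100 (complete control), were assigned after 13 to 15 d in the greenhouse by comparison with controls. Test compounds had been added to paddy water covering soil by 3 cm at the 2-leaf stage.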

[18] = system: duck salad (Heteranthera limosa); test: as above; conditions: 250 g ai/ha, scale 0 to 100 (0 no effect, 100 complete control), 13 to 15 d
Method in brief: as §2

[19] = system: rice (Oryza sativa); test: as above; conditions: 250 g ai/ha, scale 0 to 100 (0 no effect, 100 complete control), 13 to 15 d
Method in brief: as §2

[20] = system: sedge umbrella (small-flower umbrella sedge, Cyperus difformis); test: as above; conditions: 250 g ai/ha, scale 0 to 100 (0 no effect, 100 complete control), 13 to 15 d
Method in brief: as §2

[21] = Test C, postemergence, 125 g ai/ha

SMILES: CCCCON=C(c1cc(Cl)cc(Cl)c1Cl)c1c(O)c(C)nn(C)c1=O [Compound 268]
- Ryegrass, Italian plant response rating (0 to 100 scale) ([1]; 31 g ai/ha): 20
- Ryegrass, Italian plant response rating (0 to 100 scale) ([1]; 125 g ai/ha): 90
- Barnyardgrass plant response rating (0 to 100 scale) ([2]; 31 g ai/ha): 30
- Barnyardgrass plant response rating (0 to 100 scale) ([2]; 125 g ai/ha): 70
- Foxtail, Giant plant response rating (0 to 100 scale) ([3]; 31 g ai/ha): 70
- Foxtail, Giant plant response rating (0 to 100 scale) ([3]; 125 g ai/ha): 100
- Kochia plant response rating (0 to 100 scale) ([4]; 31 g ai/ha): 0
- Kochia plant response rating (0 to 100 scale) ([4]; 125 g ai/ha): 0
- Pigweed plant response rating (0 to 100 scale) ([5]; 31 g ai/ha): 0
- Pigweed plant response rating (0 to 100 scale) ([5]; 125 g ai/ha): 0
- Ragweed plant response rating (0 to 100 scale) ([6]; 31 g ai/ha): 10
- Ragweed plant response rating (0 to 100 scale) ([6]; 125 g ai/ha): 60
- Ryegrass, Italian plant response rating (0 to 100 scale) ([7]; Postemergence, 31 g ai/ha): 60
- Ryegrass, Italian plant response rating (0 to 100 scale) [7, 21]: 100
- Barnyardgrass plant response rating (0 to 100 scale) ([8]; Postemergence, 31 g ai/ha): 50
- Barnyardgrass plant response rating (0 to 100 scale) [8, 21]: 60
- Blackgrass plant response rating (0 to 100 scale) ([9]; Postemergence, 31 g ai/ha): 0
- Blackgrass plant response rating (0 to 100 scale) [9, 21]: 20
- Corn plant response rating (0 to 100 scale) ([10]; Postemergence, 31 g ai/ha): 0
- Corn plant response rating (0 to 100 scale) [10, 21]: 30
- Foxtail, Giant plant response rating (0 to 100 scale) ([11]; Postemergence, 31 g ai/ha): 60
- Foxtail, Giant plant response rating (0 to 100 scale) [11, 21]: 90
- Galium plant response rating (0 to 100 scale) ([12]; Postemergence, 31 g ai/ha): 20
- Galium plant response rating (0 to 100 scale) [12, 21]: 50
- Kochia plant response rating (0 to 100 scale) ([13]; Postemergence, 31 g ai/ha): 10
- Kochia plant response rating (0 to 100 scale) [13, 21]: 20
- Pigweed plant response rating (0 to 100 scale) ([14]; Postemergence, 31 g ai/ha): 10
- Pigweed plant response rating (0 to 100 scale) [14, 21]: 20
- Ragweed plant response rating (0 to 100 scale) ([15]; Postemergence, 31 g ai/ha): 70
- Ragweed plant response rating (0 to 100 scale) [15, 21]: 100
- Wheat plant response rating (0 to 100 scale) ([16]; Postemergence, 31 g ai/ha): 0
- Wheat plant response rating (0 to 100 scale) [16, 21]: 20
- Plant response rating, Barnyardgrass (Flood) [17]: 0
- Plant response rating, Ducksalad (Flood) [18]: 0
- Plant response rating, Rice (Flood) [19]: 0
- Plant response rating, Sedge, Umbrella (Flood) [20]: 0

SMILES: CCO/N=C(\c1c(O)c(Cl)nn(C)c1=O)c1ccc(F)c2ccccc12 [Compound 212]
- Ryegrass, Italian plant response rating (0 to 100 scale) ([1]; 31 g ai/ha): 0
- Ryegrass, Italian plant response rating (0 to 100 scale) ([1]; 125 g ai/ha): 30
- Barnyardgrass plant response rating (0 to 100 scale) ([2]; 31 g ai/ha): 40
- Barnyardgrass plant response rating (0 to 100 scale) ([2]; 125 g ai/ha): 80
- Foxtail, Giant plant response rating (0 to 100 scale) ([3]; 31 g ai/ha): 80
- Foxtail, Giant plant response rating (0 to 100 scale) ([3]; 125 g ai/ha): 100
- Kochia plant response rating (0 to 100 scale) ([4]; 31 g ai/ha): 0
- Kochia plant response rating (0 to 100 scale) ([4]; 125 g ai/ha): 20
- Pigweed plant response rating (0 to 100 scale) ([5]; 31 g ai/ha): 10
- Pigweed plant response rating (0 to 100 scale) ([5]; 125 g ai/ha): 100
- Ragweed plant response rating (0 to 100 scale) ([6]; 31 g ai/ha): 10
- Ragweed plant response rating (0 to 100 scale) ([6]; 125 g ai/ha): 100
- Ryegrass, Italian plant response rating (0 to 100 scale) ([7]; Postemergence, 31 g ai/ha): 10
- Ryegrass, Italian plant response rating (0 to 100 scale) [7, 21]: 80
- Barnyardgrass plant response rating (0 to 100 scale) ([8]; Postemergence, 31 g ai/ha): 50
- Barnyardgrass plant response rating (0 to 100 scale) [8, 21]: 70
- Blackgrass plant response rating (0 to 100 scale) ([9]; Postemergence, 31 g ai/ha): 0
- Blackgrass plant response rating (0 to 100 scale) [9, 21]: 0
- Corn plant response rating (0 to 100 scale) ([10]; Postemergence, 31 g ai/ha): 0
- Corn plant response rating (0 to 100 scale) [10, 21]: 0
- Foxtail, Giant plant response rating (0 to 100 scale) ([11]; Postemergence, 31 g ai/ha): 50
- Foxtail, Giant plant response rating (0 to 100 scale) [11, 21]: 80
- Galium plant response rating (0 to 100 scale) ([12]; Postemergence, 31 g ai/ha): 90
- Galium plant response rating (0 to 100 scale) [12, 21]: 100
- Kochia plant response rating (0 to 100 scale) ([13]; Postemergence, 31 g ai/ha): 50
- Kochia plant response rating (0 to 100 scale) [13, 21]: 50
- Pigweed plant response rating (0 to 100 scale) ([14]; Postemergence, 31 g ai/ha): 50
- Pigweed plant response rating (0 to 100 scale) [14, 21]: 90
- Ragweed plant response rating (0 to 100 scale) ([15]; Postemergence, 31 g ai/ha): 100
- Ragweed plant response rating (0 to 100 scale) [15, 21]: 90
- Wheat plant response rating (0 to 100 scale) ([16]; Postemergence, 31 g ai/ha): 0
- Wheat plant response rating (0 to 100 scale) [16, 21]: 0
- Plant response rating, Barnyardgrass (Flood) [17]: 20
- Plant response rating, Ducksalad (Flood) [18]: 60
- Plant response rating, Rice (Flood) [19]: 0
- Plant response rating, Sedge, Umbrella (Flood) [20]: 65

SMILES: C#CCON=C(c1cccc(OCC)c1)c1c(O)c(C)nn(C)c1=O [Compound 199]
- Ryegrass, Italian plant response rating (0 to 100 scale) ([1]; 31 g ai/ha): 0
- Ryegrass, Italian plant response rating (0 to 100 scale) ([1]; 125 g ai/ha): 20
- Barnyardgrass plant response rating (0 to 100 scale) ([2]; 31 g ai/ha): 0
- Barnyardgrass plant response rating (0 to 100 scale) ([2]; 125 g ai/ha): 0
- Foxtail, Giant plant response rating (0 to 100 scale) ([3]; 31 g ai/ha): 0
- Foxtail, Giant plant response rating (0 to 100 scale) ([3]; 125 g ai/ha): 10
- Kochia plant response rating (0 to 100 scale) ([4]; 31 g ai/ha): 0
- Kochia plant response rating (0 to 100 scale) ([4]; 125 g ai/ha): 0
- Pigweed plant response rating (0 to 100 scale) ([5]; 31 g ai/ha): 0
- Pigweed plant response rating (0 to 100 scale) ([5]; 125 g ai/ha): 10
- Ragweed plant response rating (0 to 100 scale) ([6]; 31 g ai/ha): 0
- Ragweed plant response rating (0 to 100 scale) ([6]; 125 g ai/ha): 0
- Ryegrass, Italian plant response rating (0 to 100 scale) ([7]; Postemergence, 31 g ai/ha): 0
- Ryegrass, Italian plant response rating (0 to 100 scale) [7, 21]: 0
- Barnyardgrass plant response rating (0 to 100 scale) ([8]; Postemergence, 31 g ai/ha): 0
- Barnyardgrass plant response rating (0 to 100 scale) [8, 21]: 20
- Blackgrass plant response rating (0 to 100 scale) ([9]; Postemergence, 31 g ai/ha): 0
- Blackgrass plant response rating (0 to 100 scale) [9, 21]: 20
- Corn plant response rating (0 to 100 scale) ([10]; Postemergence, 31 g ai/ha): 0
- Corn plant response rating (0 to 100 scale) [10, 21]: 0
- Foxtail, Giant plant response rating (0 to 100 scale) ([11]; Postemergence, 31 g ai/ha): 0
- Foxtail, Giant plant response rating (0 to 100 scale) [11, 21]: 20
- Galium plant response rating (0 to 100 scale) ([12]; Postemergence, 31 g ai/ha): 20
- Galium plant response rating (0 to 100 scale) [12, 21]: 30
- Kochia plant response rating (0 to 100 scale) ([13]; Postemergence, 31 g ai/ha): 0
- Kochia plant response rating (0 to 100 scale) [13, 21]: 0
- Pigweed plant response rating (0 to 100 scale) ([14]; Postemergence, 31 g ai/ha): 0
- Pigweed plant response rating (0 to 100 scale) [14, 21]: 0
- Ragweed plant response rating (0 to 100 scale) ([15]; Postemergence, 31 g ai/ha): 0
- Ragweed plant response rating (0 to 100 scale) [15, 21]: 0
- Wheat plant response rating (0 to 100 scale) ([16]; Postemergence, 31 g ai/ha): 0
- Wheat plant response rating (0 to 100 scale) [16, 21]: 0
- Plant response rating, Barnyardgrass (Flood) [17]: 0
- Plant response rating, Ducksalad (Flood) [18]: 0
- Plant response rating, Rice (Flood) [19]: 0
- Plant response rating, Sedge, Umbrella (Flood) [20]: 0

— patent publication US20210045385A1, “PYRIDAZINONE-SUBSTITUTED KETOXIMES AS HERBICIDES” (FMC Corporation, priority 2018, published 2021)
